Measured values from PubChem BioAssay AID330 (DTP/NCI, 2004).
Values joined by “and” are separate entries in the source; they are usually repeats but may differ in a detail not shown here. Identical values can stand only once. Toxic doses and inconclusive results are not listed. Rule for the calls: active = survival T/C of 150% or more; inactive = T/C below 125% in these data. Peptide text beside a SMILES is read from it. * marks the point of attachment. Boc = CC(C)(C)OC(=O)*; OtBu = CC(C)(C)O*

System: P388 leukemia ip, CD2F1 mice, survival T/C
Experiment: NCI In Vivo Anticancer Drug Screen. Data for tumor model P388 Leukemia (intraperitoneal) in CD2F1 (CDF1) mice
Conditions: endpoint: median survival time, higher = longer survival
Summary of the method: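 Mice carrying the transplanted tumor received test compound or vehicle. Survival was recorded in each group, and the value is the treated-group measurement divided by that of the vehicle-treated control group.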

[1] = dose: 50.0 mg/kg/injection, schedule: Q01DX005 (ip), vehicle: Klucel (hydroxypropylcellulose) (HPC)
[2] = dose: 100.0 mg/kg/injection, schedule: Q01DX005 (ip), vehicle: Klucel (hydroxypropylcellulose) (HPC)
[3] = dose: 200.0 mg/kg/injection, schedule: Q01DX005 (ip), vehicle: Klucel (hydroxypropylcellulose) (HPC)
[4] = dose: 50.0 mg/kg/injection, schedule: Q01DX009 (ip), vehicle: saline with Tween-80
[5] = dose: 100.0 mg/kg/injection, schedule: Q01DX009 (ip), vehicle: saline with Tween-80
[6] = dose: 200.0 mg/kg/injection, schedule: Q01DX009 (ip), vehicle: saline with Tween-80
[7] = dose: 400.0 mg/kg/injection, schedule: Q01DX009 (ip), vehicle: saline with Tween-80
[8] = dose: 50.0 mg/kg/injection, schedule: Q01DX005 (ip), vehicle: saline
[9] = dose: 100.0 mg/kg/injection, schedule: Q01DX005 (ip), vehicle: saline
[10] = dose: 12.5 mg/kg/injection, schedule: Q01DX009 (ip), vehicle: saline with Tween-80
[11] = dose: 60.0 mg/kg/injection, schedule: Q01DX005 (ip), vehicle: saline

Measured: T/C

N#Cc1cc2cc3c4c(c2oc1=O)CCCN4CCC3
inactive: [1] 95 % of control | [2] 94 % of control | [3] 95 % of control

CCCN1CN2C(C)C(c3ccccc3)OC2C(C)(C)C1 (stereo not drawn)
inactive: [4] 112 % of control | [5] 112 % of control | [6] 117 % of control

CSCCC(NC(=O)OC(C)(C)C)C(=O)NC(Cc1ccccc1)C(=O)NCC(=O)OC(C)(C)C (stereo not drawn) (Boc-Met-Phe-Gly-OtBu; configuration not given here)
inactive: [1] 93 % of control | [2] 97 % of control | [3] 107 % of control

O=Cc1c[nH]c2ccc(NC(=O)OCc3ccccc3)cc12
inactive: [4] 103 % of control | [5] 89 % of control | [7] 86 % of control

O=C(O)C1(Br)CC2(C1)CC(Br)(C(=O)O)C2 (stereo not drawn)
inactive: dose: 100.0 mg/kg/injection, schedule: Q04DX002 (ip), vehicle: other 94 % of control | dose: 200.0 mg/kg/injection, schedule: Q04DX002 (ip), vehicle: other 91 % of control | dose: 400.0 mg/kg/injection, schedule: Q04DX002 (ip), vehicle: other 103 % of control

CC(C)[C@@]12O[C@@H]1CC13OC1[C@@H](O)CC[C@@]32O (stereo partly drawn)
inactive: [8] 105 % of control | [9] 99 % of control | dose: 200.0 mg/kg/injection, schedule: Q01DX005 (ip), vehicle: saline 103 % of control

O=C1NC(=O)C2(CCc3ccccc3C2)N1 (stereo not drawn)
inactive: [4] 100 % of control | [5] 100 % of control | [6] 96 % of control | [7] 97 % of control

O=C1c2ccccc2-c2c3c(cc4ccnc1c24)OCO3
inactive: dose: 3.12 mg/kg/injection, schedule: Q01DX009 (ip), vehicle: saline with Tween-80 115 % of control | dose: 6.25 mg/kg/injection, schedule: Q01DX009 (ip), vehicle: Klucel (hydroxypropylcellulose) (HPC) 101 % of control | dose: 6.25 mg/kg/injection, schedule: Q01DX009 (ip), vehicle: saline with Tween-80 105 % of control | dose: 12.5 mg/kg/injection, schedule: Q01DX009 (ip), vehicle: Klucel (hydroxypropylcellulose) (HPC) 97 % of control | [10] 89 % of control | dose: 25.0 mg/kg/injection, schedule: Q01DX009 (ip), vehicle: Klucel (hydroxypropylcellulose) (HPC) 99 % of control | dose: 50.0 mg/kg/injection, schedule: Q01DX009 (ip), vehicle: Klucel (hydroxypropylcellulose) (HPC) 100 % of control | [4] 99 % of control | [5] 99 % of control

CC(=O)C1SCC[S+]1C (stereo not drawn)
inactive: dose: 15.0 mg/kg/injection, schedule: Q01DX005 (ip), vehicle: saline 102 % of control | dose: 30.0 mg/kg/injection, schedule: Q01DX005 (ip), vehicle: saline 102 % of control | [11] 99 % of control and 106 % of control and 114 % of control

COc1cc2c(OC)c(c1)CCc1cc(OC)c(cc1OC)CC2
inactive: dose: 50.0 mg/kg/injection, schedule: Q01DX005 (ip), vehicle: saline with Tween-80 97 % of control | dose: 100.0 mg/kg/injection, schedule: Q01DX005 (ip), vehicle: saline with Tween-80 97 % of control | dose: 200.0 mg/kg/injection, schedule: Q01DX005 (ip), vehicle: saline with Tween-80 94 % of control

c1ccc([Se][Se]c2ccccn2)nc1
inactive: dose: 6.25 mg/kg/injection, schedule: Q01DX005 (ip), vehicle: Klucel (hydroxypropylcellulose) (HPC) 101 % of control | dose: 12.5 mg/kg/injection, schedule: Q01DX005 (ip), vehicle: Klucel (hydroxypropylcellulose) (HPC) 103 % of control | dose: 25.0 mg/kg/injection, schedule: Q01DX005 (ip), vehicle: Klucel (hydroxypropylcellulose) (HPC) 101 % of control

COc1ccccc1C(=O)C(CN(C)C)CN(C)C
inactive: dose: 1.87 mg/kg/injection, schedule: Q01DX005 (ip), vehicle: saline 105 % of control | dose: 3.75 mg/kg/injection, schedule: Q01DX005 (ip), vehicle: saline 108 % of control | dose: 7.5 mg/kg/injection, schedule: Q01DX005 (ip), vehicle: saline 112 % of control | [11] 112 % of control

O=C(Cn1ccnc1[N+](=O)[O-])N(CCO)CCO
inactive: dose: 6.25 mg/kg/injection, schedule: Q01DX009 (ip), vehicle: saline 102 % of control | dose: 12.5 mg/kg/injection, schedule: Q01DX009 (ip), vehicle: saline 111 % of control | dose: 25.0 mg/kg/injection, schedule: Q01DX009 (ip), vehicle: saline 111 % of control | dose: 50.0 mg/kg/injection, schedule: Q01DX009 (ip), vehicle: saline 105 % of control | dose: 100.0 mg/kg/injection, schedule: Q01DX009 (ip), vehicle: saline 105 % of control | dose: 200.0 mg/kg/injection, schedule: Q01DX009 (ip), vehicle: saline 102 % of control | dose: 400.0 mg/kg/injection, schedule: Q01DX009 (ip), vehicle: saline 105 % of control | dose: 800.0 mg/kg/injection, schedule: Q01DX009 (ip), vehicle: saline 102 % of control

CC(C)(CO)NC(=O)c1ccc(Br)cc1
inactive: dose: 25.0 mg/kg/injection, schedule: Q01DX009 (ip), vehicle: other 100 % of control | dose: 50.0 mg/kg/injection, schedule: Q01DX009 (ip), vehicle: other 100 % of control | dose: 100.0 mg/kg/injection, schedule: Q01DX009 (ip), vehicle: other 104 % of control | dose: 200.0 mg/kg/injection, schedule: Q01DX009 (ip), vehicle: other 100 % of control | dose: 400.0 mg/kg/injection, schedule: Q01DX009 (ip), vehicle: other 104 % of control

CNCCSSCCN
inactive: dose: 25.0 mg/kg/injection, schedule: Q04DX003 (ip), vehicle: saline 100 % of control | dose: 50.0 mg/kg/injection, schedule: Q04DX003 (ip), vehicle: saline 90 % of control | dose: 100.0 mg/kg/injection, schedule: Q04DX003 (ip), vehicle: saline 86 % of control

COc1cc2c(cc1OC)C(CS(C)=O)Cc1cc(OC)c(OC)cc1N(C)CCC2 (stereo not drawn)
inactive: dose: 100.0 mg/kg/injection, schedule: Q04DX003 (ip), vehicle: saline with Tween-80 93 % of control | dose: 200.0 mg/kg/injection, schedule: Q04DX003 (ip), vehicle: saline with Tween-80 87 % of control | dose: 400.0 mg/kg/injection, schedule: Q04DX003 (ip), vehicle: saline with Tween-80 100 % of control

CCCCC(CC)(CC(=N)C(C)(C)C)c1ccccc1 (stereo not drawn)
inactive: dose: 50.0 mg/kg/injection, schedule: Q01DX009 (ip), vehicle: saline + alcohol 111 % of control | dose: 100.0 mg/kg/injection, schedule: Q01DX009 (ip), vehicle: saline + alcohol 103 % of control | dose: 200.0 mg/kg/injection, schedule: Q01DX009 (ip), vehicle: saline + alcohol 119 % of control

Nc1cccc(S(=O)(=O)Nc2c(N)[nH]c(=S)[nH]c2=O)c1
inactive: dose: 30.0 mg/kg/injection, schedule: Q01DX005 (ip), vehicle: Klucel (hydroxypropylcellulose) (HPC) 101 % of control and 94 % of control | dose: 60.0 mg/kg/injection, schedule: Q01DX005 (ip), vehicle: Klucel (hydroxypropylcellulose) (HPC) 99 % of control and 100 % of control and 97 % of control | dose: 120.0 mg/kg/injection, schedule: Q01DX005 (ip), vehicle: Klucel (hydroxypropylcellulose) (HPC) 96 % of control and 97 % of control

O=C1c2ccsc2C(=O)c2ccsc21
inactive: [10] 101 % of control | dose: 25.0 mg/kg/injection, schedule: Q01DX009 (ip), vehicle: saline with Tween-80 105 % of control | [4] 101 % of control | [5] 99 % of control

C1COCCOCCNCCOCCOCCN1
inactive: [8] 95 % of control | [9] 98 % of control

CN(C)c1ccc(C(Cl)[O][Sn]([Cl])([c]2ccccc2)[c]2ccccc2)cc1.[CH3][Sn]([CH3])([Cl])[Cl] (stereo not drawn)
inactive: dose: 1.56 mg/kg/injection, schedule: Q01DX005 (ip), vehicle: saline with Tween-80 112 % of control | dose: 3.12 mg/kg/injection, schedule: Q01DX005 (ip), vehicle: saline with Tween-80 113 % of control and 119 % of control | dose: 6.25 mg/kg/injection, schedule: Q01DX005 (ip), vehicle: saline with Tween-80 109 % of control

COc1ccc2cc3cc[n+](C)cc3cc2c1OC
inactive: dose: 12.5 mg/kg/injection, schedule: Q01DX009 (ip), vehicle: water 114 % of control | dose: 25.0 mg/kg/injection, schedule: Q01DX009 (ip), vehicle: water 119 % of control

CCN(CC)c1ccc2cc(C(=O)c3cccs3)c(=O)oc2c1
inactive: dose: 60.0 mg/kg/injection, schedule: Q01DX005 (ip), vehicle: saline with Tween-80 104 % of control | dose: 120.0 mg/kg/injection, schedule: Q01DX005 (ip), vehicle: saline with Tween-80 96 % of control | dose: 240.0 mg/kg/injection, schedule: Q01DX005 (ip), vehicle: saline with Tween-80 103 % of control
